Reference: patent publication US6218396A, “Substituted pyridino arylpiperazines useful in the treatment of benign prostatic hyperplasia” (Orth-McNeil Pharmaceutical, Inc., priority 1999, dated 2001)

What was measured:
α1d-AR = biological target: T1, α1d-AR (Homo sapiens, UniProt P25100); assay: receptor binding assay, [125I]-HEAT, membranes of COS cells expressing α1d-AR; conditions: [125I]-HEAT 50 pM, human α1d-AR in COS cell membranes; unit 'nanomolar'
T1 construct: expressed in transfected cells; host or cells: COS cells (pcDNA3, transient DEAE-dextran transfection; membranes)
T1 sequence (P25100 1-572): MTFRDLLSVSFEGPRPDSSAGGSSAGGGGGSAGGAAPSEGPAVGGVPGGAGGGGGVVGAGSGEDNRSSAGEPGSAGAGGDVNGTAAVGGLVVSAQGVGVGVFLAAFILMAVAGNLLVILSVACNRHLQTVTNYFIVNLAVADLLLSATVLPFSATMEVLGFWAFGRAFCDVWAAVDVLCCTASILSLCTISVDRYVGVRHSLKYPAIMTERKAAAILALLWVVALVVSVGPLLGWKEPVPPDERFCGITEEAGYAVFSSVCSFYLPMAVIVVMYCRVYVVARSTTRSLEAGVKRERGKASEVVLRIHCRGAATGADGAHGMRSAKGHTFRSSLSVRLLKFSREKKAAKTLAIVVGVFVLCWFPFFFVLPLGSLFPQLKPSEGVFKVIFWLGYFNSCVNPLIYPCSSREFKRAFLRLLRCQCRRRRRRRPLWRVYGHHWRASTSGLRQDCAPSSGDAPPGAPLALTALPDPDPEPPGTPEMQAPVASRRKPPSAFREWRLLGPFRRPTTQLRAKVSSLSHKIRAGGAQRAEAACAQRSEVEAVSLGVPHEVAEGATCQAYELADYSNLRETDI
Source text: (§1) The DNA sequences of the three cloned human α1-AR subtypes have been published. […] We used published DNA sequence information to design primers for use in RT-PCR amplification of each subtype to obtain cloned cDNAs. Human poly A+ RNA was obtained from commercially available sources and included hippocampus and prostate samples, sources which have been cited in the literature. For the primary screen a radio ligand binding assay was used which employed membrane preparations from cells expressing the individual cloned receptor cDNAs. Radiolabeled ligands with binding activity on all three subtypes (non-selective) are commercially available ([125I]-HEAT, [3H]-prazosin).
(§2) Each α1 receptor subtype was cloned from poly A+ RNA by the standard method of reverse transcription-polymerase chain reaction (RT-PCR). The following sources of polyA+ RNA were used for the cloning of the α1 receptor subtypes: α1a -AR, human hippocampus and prostate, α1b -AR, human hippocampus, α1d -AR, human hippocampus. The resulting cDNAs were cloned into the pcDNA3 mammalian expression vector (Invitrogen Corp., San Diego Calif.). Each DNA was sequenced for verification and to detect any possible mutations introduced during the amplification process. Any deviation in sequence from the published consensus for each receptor subtype was corrected by site-directed mutagenesis.
(§3) The three α1-AR subtypes (a, b, d) were transfected into COS cells using a standard DEAE-dextran procedure with a chloroquine shock. In this procedure, each tissue culture dish (100 mm) was inoculated with 3.5×10^6 cells and transfected with 10 μg of DNA. Approximately 72 hours post-transfection, the cells were harvested and COS membranes were prepared. Transfected COS cells from 25 plates (100 mm) were scraped and suspended in 15 mL of TE buffer (50 mM Tris-HCl, 5 mM EDTA, pH7.4). The suspension was disrupted with a homogenizer. It was then centrifuged at 1000×g for 10 minutes at […]. The supernatant was centrifuged at 34,500×g for 20 minutes at 4° C. The pellet was resuspended in 5 mL TNE buffer (50 mM Tris-HCl, 5 mM EDTA, 150 mM NaCl, pH7.4). The resulting membrane preparation was aliquoted and stored at -70° C. The protein concentration was determined following membrane solubilization with TritonX-100.
(§4) The ability of each compound to bind to each of the α1-AR subtypes was assessed in a receptor binding assay. [125I]-HEAT, a non-selective α1-AR ligand, was used as the radiolabeled ligand. Each well of a 96-well plate received: 140 μL TNE, 25 μL [125I]-HEAT diluted in TNE (50,000 cpm; final concentration 50 pM), 10 μL test compound diluted in DMSO (final concentration 1 pM-10 μM), […] COS cell membrane preparation expressing one of the three α1-AR subtypes (0.05-0.2 mg membrane protein). The plate was incubated for 1 hour at room temperature and the reaction mixtures were filtered through a Packard GF/C Unifilter filter plate. The filter plate was dried for 1 hour in a vacuum oven. Scintillation fluid ([…]) was added to each well, and the filter plate was counted in a Packard Topcount scintillation counter. Data was analyzed using GraphPad Prism software.

α1a-AR = biological target: T2, α1a-AR (Homo sapiens, UniProt P35348); assay: receptor binding assay, [125I]-HEAT, membranes of COS cells expressing α1a-AR; conditions: [125I]-HEAT 50 pM, human α1a-AR in COS cell membranes; unit 'nanomolar'
T2 construct: expressed in transfected cells; host or cells: COS cells (pcDNA3, transient DEAE-dextran transfection; membranes)
T2 sequence (P35348 1-466): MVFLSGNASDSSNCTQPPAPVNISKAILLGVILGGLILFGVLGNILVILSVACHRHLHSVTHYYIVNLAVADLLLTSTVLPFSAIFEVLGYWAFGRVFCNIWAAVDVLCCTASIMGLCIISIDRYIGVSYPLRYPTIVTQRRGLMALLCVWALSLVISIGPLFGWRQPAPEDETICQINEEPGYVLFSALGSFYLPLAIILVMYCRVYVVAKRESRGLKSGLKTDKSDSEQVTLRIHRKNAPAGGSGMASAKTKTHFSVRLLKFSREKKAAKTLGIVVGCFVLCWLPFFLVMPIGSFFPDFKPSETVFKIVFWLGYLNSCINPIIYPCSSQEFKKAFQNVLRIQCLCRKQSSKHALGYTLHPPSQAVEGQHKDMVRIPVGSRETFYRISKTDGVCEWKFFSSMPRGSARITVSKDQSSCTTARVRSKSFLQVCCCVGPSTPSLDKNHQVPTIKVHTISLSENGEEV
Source text: as §1, §2, §3, §4

α1b-AR = biological target: T3, α1b-AR (Homo sapiens, UniProt P35368); assay: receptor binding assay, [125I]-HEAT, membranes of COS cells expressing α1b-AR; conditions: [125I]-HEAT 50 pM, human α1b-AR in COS cell membranes; unit 'nanomolar'
T3 construct: expressed in transfected cells; host or cells: COS cells (pcDNA3, transient DEAE-dextran transfection; membranes)
T3 sequence (P35368 1-520): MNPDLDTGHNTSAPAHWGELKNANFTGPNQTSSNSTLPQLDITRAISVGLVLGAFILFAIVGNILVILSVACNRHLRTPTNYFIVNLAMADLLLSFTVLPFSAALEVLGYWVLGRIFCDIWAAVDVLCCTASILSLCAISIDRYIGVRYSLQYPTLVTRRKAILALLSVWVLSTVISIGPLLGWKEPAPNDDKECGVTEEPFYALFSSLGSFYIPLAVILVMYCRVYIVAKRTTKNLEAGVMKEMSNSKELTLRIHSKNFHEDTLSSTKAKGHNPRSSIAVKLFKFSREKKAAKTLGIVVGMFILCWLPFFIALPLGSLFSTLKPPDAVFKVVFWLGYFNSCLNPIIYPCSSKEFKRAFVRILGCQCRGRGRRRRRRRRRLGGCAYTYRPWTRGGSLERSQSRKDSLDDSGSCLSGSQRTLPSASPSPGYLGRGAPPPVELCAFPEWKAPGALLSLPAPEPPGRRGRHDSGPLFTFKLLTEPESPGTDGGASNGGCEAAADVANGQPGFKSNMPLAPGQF
Source text: as §1, §2, §3, §4

symptomatic BPH = conditions: human, in vivo; cited from earlier work
5α-reductase = conditions: cited from earlier work

| Compound | IC50 (α1d-AR) | IC50 (α1a-AR) | IC50 (α1b-AR) | effectiveness in treating symptomatic BPH (in words) (symptomatic BPH) | serum and tissue concentrations of dihydrotestosterone (in words) (symptomatic BPH) | time for effects to become evident (symptomatic BPH) | inhibition of 5α-reductase (in words) (5α-reductase) |
| --- | --- | --- | --- | --- | --- | --- | --- |
| COc1ccc(Oc2ncccc2C(=O)NCC(O)CN2CCN(c3ccccc3OC(C)C)CC2)cc1 (stereo not shown) [Compound 10] | 0.131 µM | 0.0024 µM | 1.91 µM |  |  |  |  |
| CC(C)Oc1ccccc1N1CCN(CC(O)CNC(=O)c2cccnc2Nc2cccc(C(F)(F)F)c2)CC1 (stereo not shown) [Compound 11] | 0.079 µM | 0.025 µM | 1.02 µM |  |  |  |  |
| CC(C)Oc1ccccc1N1CCN(CC(O)CNC(=O)c2cccnc2Sc2ccc(Cl)cc2)CC1 (stereo not shown) [Compound 12] | 0.299 µM | 0.0026 µM | 0.806 µM |  |  |  |  |
| COc1ncccc1C(=O)NCC(O)CN1CCN(c2ccccc2OC(C)C)CC1 (stereo not shown) [Compound 13] | 0.191 µM | 0.0035 µM | > 2 µM |  |  |  |  |
| Cc1ccc(Oc2ncccc2C(=O)NC[C@H](O)CN2CCN(c3ccccc3OC(C)C)CC2)cc1 [Compound 18] | 0.05 µM | 0.00051 µM | 0.29 µM |  |  |  |  |
| CC(C)Oc1ccccc1N1CCN(C[C@@H](O)CNC(=O)c2cccnc2Oc2ccc(Cl)cc2)CC1 [Compound 27] | 0.057 µM | 0.00086 µM | 0.791 µM |  |  |  |  |
| CC(C)Oc1ccccc1N1CCN(CC(O)CNC(=O)c2cccnc2Oc2ccc(Cl)c(Cl)c2)CC1 (stereo not shown) [Compound 30] | 0.056 µM | 0.002 µM | 2.25 µM |  |  |  |  |
| CC(C)Oc1ccccc1N1CCN(CC(O)CNC(=O)c2cccnc2Nc2ccccc2)CC1 (stereo not shown) [Compound 31] | 0.025 µM | 0.025 µM | 0.736 µM |  |  |  |  |
| CC(C)Oc1ccccc1N1CCN(CC(O)CNC(=O)c2cccnc2Oc2ccc(C(C)(C)C)cc2)CC1 (stereo not shown) [Compound 33] | 0.078 µM | 0.0033 µM | > 2 µM |  |  |  |  |
| CC(C)Oc1ccccc1N1CCN(CC(O)CNC(=O)c2cccnc2Oc2cccc(N(C)C)c2)CC1 (stereo not shown) [Compound 38] | 0.056 µM | 0.002 µM | 0.972 µM |  |  |  |  |
| CC(C)Oc1ccccc1N1CCN(CC(O)CNC(=O)c2cccnc2Sc2ccccc2)CC1 (stereo not shown) [Compound 43] | 0.07 µM | 0.002 µM | 1.22 µM |  |  |  |  |
| CC(C)(C)NC(=O)[C@H]1CC[C@H]2[C@@H]3CC[C@H]4NC(=O)C=C[C@]4(C)[C@H]3CC[C@]12C [finasteride] |  |  |  | only moderately effective | marked decrease | 6-12 months | potent 5α-reductase inhibitor |

Second part, led by results:

| IC50 (α1d-AR) | IC50 (α1a-AR) | IC50 (α1b-AR) | Compound | effectiveness in treating symptomatic BPH (in words) (symptomatic BPH) | serum and tissue concentrations of dihydrotestosterone (in words) (symptomatic BPH) | time for effects to become evident (symptomatic BPH) | inhibition of 5α-reductase (in words) (5α-reductase) |
| --- | --- | --- | --- | --- | --- | --- | --- |
| 0.211 µM | 0.0015 µM | 0.909 µM | CC(C)Oc1ccccc1N1CCN(CC(O)CNC(=O)c2cccnc2Oc2ccccc2)CC1 (stereo not shown) [Compound 3] |  |  |  |  |
| 0.04 µM | 0.00064 µM | 0.151 µM | CC(C)Oc1ccccc1N1CCN(CCCNC(=O)c2cccnc2Oc2ccccc2)CC1 [Compound 5] |  |  |  |  |
| 0.081 µM | 0.00076 µM | 0.668 µM | CC(C)Oc1ccccc1N1CCN(C[C@@H](O)CNC(=O)c2cccnc2Oc2ccccc2)CC1 [Compound 8] |  |  |  |  |
| 0.021 µM | 0.0024 µM | 1.36 µM | COC(CNC(=O)c1cccnc1Oc1ccccc1)CN1CCN(c2ccccc2OC(C)C)CC1 (stereo not shown) [Compound 16] |  |  |  |  |
| 0.546 µM | 0.063 µM | 0.887 µM | CC(C)Oc1ccccc1N1CCN(CC(=O)CNC(=O)c2cccnc2Oc2ccccc2)CC1 [Compound 17] |  |  |  |  |
| 0.969 µM | 0.025 µM | 0.361 µM | Cc1ccc(Oc2ncccc2C(=O)NC[C@@H](O)CN2CCN(c3ccccc3OC(C)C)CC2)cc1 [Compound 28] |  |  |  |  |
| 0.043 µM | 0.00027 µM | > 2 µM | Cc1ccc(Oc2ncccc2C(=O)NCCCN2CCN(c3ccccc3OC(C)C)CC2)cc1 [Compound 29] |  |  |  |  |
| 0.147 µM | 0.03 µM | 1.57 µM | COc1ccccc1N1CCN(CC(O)CNC(=O)c2cccnc2Oc2ccccc2)CC1 (stereo not shown) [Compound 32] |  |  |  |  |
| 0.206 µM | 0.0091 µM | 0.132 µM | CCOc1ccccc1N1CCN(CC(O)CNC(=O)c2cccnc2Oc2ccccc2)CC1 (stereo not shown) [Compound 34] |  |  |  |  |
| 0.314 µM | 0.0102 µM | 0.889 µM | CC(C)Oc1ccccc1N1CCN(C[C@H](O)CNC(=O)c2cccnc2Oc2ccccc2)CC1 [Compound 35] |  |  |  |  |
| 0.148 µM | 0.0015 µM | 1.18 µM | CC(C)Oc1ccccc1N1CCN(CC(O)CNC(=O)c2cccnc2Oc2ccc(F)cc2)CC1 (stereo not shown) [Compound 36] |  |  |  |  |
| 0.18 µM | 0.00091 µM | 0.952 µM | CC(C)Oc1ccccc1N1CCN(CC(O)CNC(=O)c2cccnc2Oc2cccc(Cl)c2)CC1 (stereo not shown) [Compound 37] |  |  |  |  |
| 0.0017 µM | 0.0011 µM | 0.73 µM | Cc1ccccc1Oc1ncccc1C(=O)NCC(O)CN1CCN(c2ccccc2OC(C)C)CC1 (stereo not shown) [Compound 39] |  |  |  |  |
| 0.0022 µM | 0.0017 µM | 0.58 µM | COc1ccccc1Oc1ncccc1C(=O)NCC(O)CN1CCN(c2ccccc2OC(C)C)CC1 (stereo not shown) [Compound 40] |  |  |  |  |
| 0.021 µM | 0.00052 µM | 0.928 µM | Cc1ccc(Oc2ncccc2C(=O)NCC(O)CN2CCN(c3ccccc3OC(C)C)CC2)cc1 (stereo not shown) [Compound 41] |  |  |  |  |
| 0.074 µM | 0.001 µM | 0.838 µM | CC(C)Oc1ccccc1N1CCN(CC(O)CNC(=O)c2cccnc2Oc2ccc(Cl)cc2)CC1 (stereo not shown) [Compound 42] |  |  |  |  |
